# Results as given in patent publication US10676496B2, “Method for producing flavonoid inclusion compound” (TAIYO KAGAKU CO., LTD., priority 2017, dated 2020).
# Where two headings read alike, the source gives them in different places.
# Experiments:
# [1] = Evaluation of bioavailability; type: in vivo
# Excerpt: Evaluation of Bioavailability
# Nine-week-old Wister rats (male) were given with MF (Oriental Yeast Co., Ltd.) and bred for 7 days, and the rats were then subjected to fasting from the day before the administration of a test substance. Thereafter, 100 μmol/kg (calculated as IQC) of a dried product of Example 16 prepared in the evaluation of the effects of preventing flavor deterioration, a rutin suspension (Alps Pharmaceutical Ind., Co., Ltd., 100 μmol/kg (calculated as IQC)), 1,000 μmol/kg (calculated as HPT-7G) of dried product of Example 22 prepared in the evaluations of the effects of preventing flavor deterioration, and a hesperidin suspension (Hamari Chemicals., Ltd., 1,000 μmol/kg (calculated as HPT-7G)) were orally administered to the rats in a single dose (orally administered by gavage, n=2). Blood collection into heparinized tubes was carried out from tail veins of rats 30 minutes, 1 hour and 3 hours after the administration, and the blood was centrifuged to obtain plasma. In the drawn sera sample, the amounts of quercetin derivatives were measured according to a method by Makino et al (Biol. pharm. Bull., 32(12) 2034, 2009), and the amounts of hesperetin derivatives were measured according to a method by Yamada et al (Biosci. Biotechnol. Biochem, 70(6), 1386, 2006), and analysis was made by applying the sample to high-performance liquid chromatography (SHIMADZU) and using a photodiode array detector (SPD-M30A, SHIMADZU).
# [2] = Evaluation of storage stability (green tea); type: physicochemical; details: 0.03% as hesperetin-7-glucoside; for presence or absence of the precipitates, 4° C.: 7 days at 4° C.; for presence or absence of the precipitates, 25° C.: 7 days at 25° C.
# Method: Evaluation of Storage Stability (Green Tea)
# Hesperidin (manufactured by Hamari Chemicals., Ltd.), hesperetin-7-glucoside (prepared in the following), a flavonoid inclusion compound of Example 22 or a composition of flavonoid glycosides of Example 40 was added to a commercially available green tea (“Oi Ocha,” manufactured by ITO EN, LTD.) so as to have a concentration calculated as 0.03% in terms of hesperetin-7-glucoside conversion. The mixture was allowed to stand for 7 days at 4° C. and 25° C., and the presence or absence of the precipitates was then visually observed.
# Seven grams of Hesperidin (manufactured by Hamari Chemicals., Ltd.) was added to […] of an aqueous solution, and the solution was adjusted to 70° C. and a pH of 4.5. Thereafter, 0.5 g of naringinase (Amano Enzyme Inc. 155 u/g) was added thereto while stirring, and the solution was recovered and dried, to give 4.2 g of hesperetin-7-glucoside having a content of 96% or more. Identification as being hesperetin-7-glucoside and a content thereof were analyzed by NMR and HPLC in the same manner as mentioned above.
# [3] = cited from earlier work
# [4] = Evaluation of storage stability (lemon beverage); type: physicochemical; details: 0.3% as naringenin-7-glucoside; for presence or absence of the precipitates, 4° C.: 1 month at 4° C.; for presence or absence of the precipitates, 25° C.: 1 month at 25° C.
# Method: Evaluation of Storage Stability (Lemon Beverage)
# Naringin (manufactured by SIGMA), naringenin-7-glucoside (prepared hereinbelow) or a flavonoid inclusion compound-containing composition of Example 109 was added to a commercially available lemon beverage (C1000 Lemon Water, manufactured by HOUSE […] FOODS CORPORATION) so as to have a concentration calculated as 0.3% in terms of naringenin-7-glucoside conversion, the beverage was allowed to stand for 1 month at 4° C. or 25° C., and the presence or absence of the precipitates was then visually observed.
# After the termination of the reaction according to Comparative Example 102, the precipitates that were previously allowed to stand at room temperature were recovered, washed with water, recrystallized and dried, to give 13 g of naringenin-7-glucoside having a content of 95% or more. The identity of the product with a reagent naringenin-7-glucoside (Wako) by HPLC and a content thereof were analyzed.
# [5] = compared with rutin, hesperidin, or naringin having a rhamnoside structure
smiles,measurement,setting,value
"C[C@@H]1O[C@@H](OC[C@H]2O[C@@H](Oc3c(-c4ccc(O)c(O)c4)oc4cc(O)cc(O)c4c3=O)[C@H](O)[C@@H](O)[C@@H]2O)[C@H](O)[C@H](O)[C@H]1O [Rutin Suspension, rutin]","AUC, Total (quercetin and quercetin derivatives)","[1]; male, Wister, rat, in vivo, po, 100 umol/kg",0.1 µM·h
"COc1ccc(C2CC(=O)c3c(O)cc(OC4OC(CO)C(O)C(O)C4O)cc3O2)cc1O (stereo not drawn) [Hesperetin-7-Glucoside, hesperetin-7-glucoside]","presence or absence of the precipitates, 4° C.",[2],x (those in which the precipitates were observed were evaluated as x)
same,"presence or absence of the precipitates, 25° C.",[2],x (those in which the precipitates were observed were evaluated as x)
same,bioavailability in rats,"[3]; rat, in vivo",higher
COc1ccc([C@@H]2CC(=O)c3c(O)cc(O[C@@H]4O[C@H](CO[C@@H]5O[C@@H](C)[C@H](O)[C@@H](O)[C@H]5O)[C@@H](O)[C@H](O)[C@H]4O)cc3O2)cc1O [Hesperidin],"presence or absence of the precipitates, 4° C.",[2],x (those in which the precipitates were observed were evaluated as x)
same,"presence or absence of the precipitates, 25° C.",[2],x (those in which the precipitates were observed were evaluated as x)
same,"AUC, hesperetin","[1]; rat plasma, single oral 1,000 μmol/kg (calculated as HPT-7G), 0 to 3 hours",0.082 µM·h
same,Hesperetin concentration,"[1]; rat plasma, single oral 1,000 μmol/kg (calculated as HPT-7G), time of blood drawing 0",0 µM
same,Hesperetin concentration,"[1]; rat plasma, single oral 1,000 μmol/kg (calculated as HPT-7G), time of blood drawing 0.5 (hours)",0.003 µM
same,Hesperetin concentration,"[1]; rat plasma, single oral 1,000 μmol/kg (calculated as HPT-7G), time of blood drawing 1 (hour)",0.064 µM
same,Hesperetin concentration,"[1]; rat plasma, single oral 1,000 μmol/kg (calculated as HPT-7G), time of blood drawing 3 (hours)",0 µM
O=C1C[C@@H](c2ccc(O)cc2)Oc2cc(O)cc(O)c21 [naringenin],bioavailability in rats,[3]; [5],higher
C[C@@H]1O[C@@H](O[C@H]2[C@H](Oc3cc(O)c4c(c3)O[C@H](c3ccc(O)cc3)CC4=O)O[C@H](CO)[C@@H](O)[C@@H]2O)[C@H](O)[C@H](O)[C@H]1O [Naringin],"presence or absence of the precipitates, 4° C.",[4],x (those in which the precipitates were observed were evaluated as x)
same,"presence or absence of the precipitates, 25° C.",[4],x (those in which the precipitates were observed were evaluated as x)
"O=C1C[C@@H](c2ccc(O)cc2)Oc2cc(O[C@@H]3O[C@H](CO)[C@@H](O)[C@H](O)[C@H]3O)cc(O)c21 [Naringenin-7-glucoside, naringenin-7-glucoside]","presence or absence of the precipitates, 4° C.",[4],x (those in which the precipitates were observed were evaluated as x)
same,"presence or absence of the precipitates, 25° C.",[4],x (those in which the precipitates were observed were evaluated as x)
same,bioavailability in rats,[3]; [5],higher
"O=c1c(O[C@@H]2O[C@H](CO)[C@@H](O)[C@H](O)[C@H]2O)c(-c2ccc(O)c(O)c2)oc2cc(O)cc(O)c12 [Isoquercitrin, isoquercitrin]",bioavailability in rats,[3]; [5],higher
